# Assay results as given in BindingDB's records for doi:10.1021/jm500763m (Beijing Institute of Pharmacology & Toxicology, 2014).
# Square brackets hold non-standard residues; d marks the D form. Peptide text beside a SMILES is read from it. * marks the point of attachment. X1 = C=CCOC(=O)[C@]12CC[C@@H](C(=C)C)[C@@H]1[C@H]1CC[C@@H]3[C@@]4(C)CC[C@H](OC(=O)CCc5cn(CC(=O)*)nn5)C(C)(C)[C@@H]4CC[C@@]3(C)[C@]1(C)CC2; X3 = C=C(C)[C@@H]1CC[C@]2(C(=O)O)CC[C@]3(C)[C@H](CC[C@@H]4[C@@]5(C)CC[C@H](OC(=O)CCc6cn(CC(=O)*)nn6)C(C)(C)[C@@H]5CC[C@]43C)[C@@H]12; X5 = C=C(C)[C@@H]1CC[C@]2(C(=O)OCc3cn(CC(=O)*)nn3)CC[C@]3(C)[C@H](CC[C@@H]4[C@@]5(C)CC[C@H](OC(C)=O)C(C)(C)[C@@H]5CC[C@]43C)[C@@H]12; X7 = C[C@H]1[C@H](C)CC[C@]2(C(=O)OCc3cn(CC(=O)*)nn3)CC[C@]3(C)C(=CC[C@@H]4[C@@]5(C)CC[C@H](O)C(C)(C)[C@@H]5CC[C@]43C)[C@H]12; X11 = CCCc1cn(CC(=O)*)nn1; βAla = NCCC(=O)O
# Experiment: Inhibition of HIV1 gp41-induced cell-cell fusion between viral envelope expressing human HL2/3 cells to CD4/CCR5 receptor expressing TZM-bl cells after 6 to 8 hrs by luciferase assay
row,EC50 [µM],Structure (SMILES)
1,0.015,C=C(C)[C@@H]1CC[C@]2(C(=O)O)CC[C@]3(C)[C@H](CC[C@@H]4[C@@]5(C)CC[C@H](OC(=O)CCc6cn(CC(=O)NCCC(=O)N[C@@H](CC(N)=O)C(=O)N[C@@H](CC(N)=O)C(=O)N[C@@H](Cc7ccc(O)cc7)C(=O)N[C@H](C(=O)N[C@@H](CO)C(=O)N[C@@H](CC(C)C)C(=O)N[C@H](C(=O)N[C@@H](Cc7cnc[nH]7)C(=O)N[C@@H](CO)C(=O)N[C@@H](CC(C)C)C(=O)N[C@H](C(=O)N[C@@H](CCC(=O)O)C(=O)N[C@@H](CCC(=O)O)C(=O)N[C@@H](CO)C(=O)N[C@@H](CCC(N)=O)C(=O)N[C@@H](CC(N)=O)C(=O)N[C@@H](CCC(N)=O)C(=O)N[C@@H](CCC(N)=O)C(=O)N[C@@H](CCC(=O)O)C(=O)N[C@@H](CCCCN)C(=O)N[C@@H](CC(N)=O)C(=O)N[C@@H](CCC(=O)O)C(=O)N[C@@H](CCC(N)=O)C(=O)N[C@@H](CCC(=O)O)C(=O)N[C@@H](CC(C)C)C(=O)N[C@@H](CC(C)C)C(N)=O)[C@@H](C)CC)[C@@H](C)CC)[C@@H](C)O)nn6)C(C)(C)[C@@H]5CC[C@]43C)[C@@H]12 ({X3-βAla}-NNYTSLIHSLIEESQNQQEKNEQELL-NH2)
2,0.327,C=C(C)[C@@H]1CC[C@]2(C(=O)OCc3cn(CC(=O)NCCC(=O)N[C@@H](CC(N)=O)C(=O)N[C@@H](CC(N)=O)C(=O)N[C@@H](Cc4ccc(O)cc4)C(=O)N[C@H](C(=O)N[C@@H](CO)C(=O)N[C@@H](CC(C)C)C(=O)N[C@H](C(=O)N[C@@H](Cc4cnc[nH]4)C(=O)N[C@@H](CO)C(=O)N[C@@H](CC(C)C)C(=O)N[C@H](C(=O)N[C@@H](CCC(=O)O)C(=O)N[C@@H](CCC(=O)O)C(=O)N[C@@H](CO)C(=O)N[C@@H](CCC(N)=O)C(=O)N[C@@H](CC(N)=O)C(=O)N[C@@H](CCC(N)=O)C(=O)N[C@@H](CCC(N)=O)C(=O)N[C@@H](CCC(=O)O)C(=O)N[C@@H](CCCCN)C(=O)N[C@@H](CC(N)=O)C(=O)N[C@@H](CCC(=O)O)C(=O)N[C@@H](CCC(N)=O)C(=O)N[C@@H](CCC(=O)O)C(=O)N[C@@H](CC(C)C)C(=O)N[C@@H](CC(C)C)C(N)=O)[C@@H](C)CC)[C@@H](C)CC)[C@@H](C)O)nn3)CC[C@]3(C)[C@H](CC[C@@H]4[C@@]5(C)CC[C@H](OC(C)=O)C(C)(C)[C@@H]5CC[C@]43C)[C@@H]12 ({X5-βAla}-NNYTSLIHSLIEESQNQQEKNEQELL-NH2)
3,2.18,CCCc1cn(CC(=O)NCCCC[C@H](NC(=O)CCNC(=O)[C@H](CC(C)C)NC(=O)[C@H](CC(C)C)NC(=O)[C@H](CCC(=O)O)NC(=O)[C@H](CCC(N)=O)NC(=O)[C@H](CCC(=O)O)NC(=O)[C@H](CC(N)=O)NC(=O)[C@H](CCCCN)NC(=O)[C@H](CCC(=O)O)NC(=O)[C@H](CCC(N)=O)NC(=O)[C@H](CCC(N)=O)NC(=O)[C@H](CC(N)=O)NC(=O)[C@H](CCC(N)=O)NC(=O)[C@H](CO)NC(=O)[C@H](CCC(=O)O)NC(=O)[C@H](CCC(=O)O)NC(=O)[C@@H](NC(=O)[C@H](CC(C)C)NC(=O)[C@H](CO)NC(=O)[C@H](Cc2cnc[nH]2)NC(=O)[C@@H](NC(=O)[C@H](CC(C)C)NC(=O)[C@H](CO)NC(=O)[C@@H](NC(=O)[C@H](Cc2ccc(O)cc2)NC(=O)[C@H](CC(N)=O)NC(=O)[C@H](CC(N)=O)NC(C)=O)[C@@H](C)O)[C@@H](C)CC)[C@@H](C)CC)C(N)=O)nn1 (Ac-NNYTSLIHSLIEESQNQQEKNEQELL[βAla]K(X11)-NH2)
4,0.145,CC[C@H](C)[C@H](NC(=O)[C@H](CC(C)C)NC(=O)[C@H](CO)NC(=O)[C@H](Cc1cnc[nH]1)NC(=O)[C@@H](NC(=O)[C@H](CC(C)C)NC(=O)[C@H](CO)NC(=O)[C@@H](NC(=O)[C@H](Cc1ccc(O)cc1)NC(=O)[C@H](CC(N)=O)NC(=O)[C@H](CC(N)=O)NC(=O)CCNC(=O)Cn1cc(COC(=O)[C@]23CC[C@@H](C)[C@H](C)[C@H]2C2=CC[C@@H]4[C@@]5(C)CC[C@H](O)C(C)(C)[C@@H]5CC[C@@]4(C)[C@]2(C)CC3)nn1)[C@@H](C)O)[C@@H](C)CC)C(=O)N[C@@H](CCC(=O)O)C(=O)N[C@@H](CCC(=O)O)C(=O)N[C@@H](CO)C(=O)N[C@@H](CCC(N)=O)C(=O)N[C@@H](CC(N)=O)C(=O)N[C@@H](CCC(N)=O)C(=O)N[C@@H](CCC(N)=O)C(=O)N[C@@H](CCC(=O)O)C(=O)N[C@@H](CCCCN)C(=O)N[C@@H](CC(N)=O)C(=O)N[C@@H](CCC(=O)O)C(=O)N[C@@H](CCC(N)=O)C(=O)N[C@@H](CCC(=O)O)C(=O)N[C@@H](CC(C)C)C(=O)N[C@@H](CC(C)C)C(N)=O ({X7-βAla}-NNYTSLIHSLIEESQNQQEKNEQELL-NH2)
5,0.044,C=C(C)[C@@H]1CC[C@]2(C(=O)O)CC[C@]3(C)[C@H](CC[C@@H]4[C@@]5(C)CC[C@H](OC(=O)CCc6cn(CC(=O)NCCCC[C@H](NC(=O)CCNC(=O)[C@H](CC(C)C)NC(=O)[C@H](CC(C)C)NC(=O)[C@H](CCC(=O)O)NC(=O)[C@H](CCC(N)=O)NC(=O)[C@H](CCC(=O)O)NC(=O)[C@H](CC(N)=O)NC(=O)[C@H](CCCCN)NC(=O)[C@H](CCC(=O)O)NC(=O)[C@H](CCC(N)=O)NC(=O)[C@H](CCC(N)=O)NC(=O)[C@H](CC(N)=O)NC(=O)[C@H](CCC(N)=O)NC(=O)[C@H](CO)NC(=O)[C@H](CCC(=O)O)NC(=O)[C@H](CCC(=O)O)NC(=O)[C@@H](NC(=O)[C@H](CC(C)C)NC(=O)[C@H](CO)NC(=O)[C@H](Cc7cnc[nH]7)NC(=O)[C@@H](NC(=O)[C@H](CC(C)C)NC(=O)[C@H](CO)NC(=O)[C@@H](NC(=O)[C@H](Cc7ccc(O)cc7)NC(=O)[C@H](CC(N)=O)NC(=O)[C@H](CC(N)=O)NC(C)=O)[C@@H](C)O)[C@@H](C)CC)[C@@H](C)CC)C(N)=O)nn6)C(C)(C)[C@@H]5CC[C@]43C)[C@@H]12 (Ac-NNYTSLIHSLIEESQNQQEKNEQELL[βAla]K(X3)-NH2)
6,0.197,C=CCOC(=O)[C@]12CC[C@@H](C(=C)C)[C@@H]1[C@H]1CC[C@@H]3[C@@]4(C)CC[C@H](OC(=O)CCc5cn(CC(=O)NCCC(=O)N[C@@H](CC(N)=O)C(=O)N[C@@H](CC(N)=O)C(=O)N[C@@H](Cc6ccc(O)cc6)C(=O)N[C@H](C(=O)N[C@@H](CO)C(=O)N[C@@H](CC(C)C)C(=O)N[C@H](C(=O)N[C@@H](Cc6cnc[nH]6)C(=O)N[C@@H](CO)C(=O)N[C@@H](CC(C)C)C(=O)N[C@H](C(=O)N[C@@H](CCC(=O)O)C(=O)N[C@@H](CCC(=O)O)C(=O)N[C@@H](CO)C(=O)N[C@@H](CCC(N)=O)C(=O)N[C@@H](CC(N)=O)C(=O)N[C@@H](CCC(N)=O)C(=O)N[C@@H](CCC(N)=O)C(=O)N[C@@H](CCC(=O)O)C(=O)N[C@@H](CCCCN)C(=O)N[C@@H](CC(N)=O)C(=O)N[C@@H](CCC(=O)O)C(=O)N[C@@H](CCC(N)=O)C(=O)N[C@@H](CCC(=O)O)C(=O)N[C@@H](CC(C)C)C(=O)N[C@@H](CC(C)C)C(N)=O)[C@@H](C)CC)[C@@H](C)CC)[C@@H](C)O)nn5)C(C)(C)[C@@H]4CC[C@@]3(C)[C@]1(C)CC2 ({X1-βAla}-NNYTSLIHSLIEESQNQQEKNEQELL-NH2)
7,> 100,C[C@H]1[C@H](C)CC[C@]2(C(=O)O)CC[C@]3(C)C(=CC[C@@H]4[C@@]5(C)CC[C@H](O)C(C)(C)[C@@H]5CC[C@]43C)[C@H]12 [3beta-hydroxyurs-12-en-28-oic acid]
